How the values were obtained:
human IL-17A (hIL-17A) = target: T1, human IL-17A (hIL-17A) (Homo sapiens, UniProt Q16552); assay: IL-17A enzyme-linked immunosorbent assay (competitive ELISA, receptor-ligand binding)
T1 construct: purchased Sino Biological Inc. 12047-H07B
T1 sequence (Q16552 24-155): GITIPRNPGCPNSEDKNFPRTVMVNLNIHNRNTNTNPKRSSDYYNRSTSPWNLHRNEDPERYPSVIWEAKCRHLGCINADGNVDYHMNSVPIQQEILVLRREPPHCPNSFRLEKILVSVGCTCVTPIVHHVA
Protocol: The inhibition of receptor-ligand binding by human IL-17A (hIL-17A) inhibitors was detected by competitive ELISA. A 96-well plate was inoculated 0.2 μg/ml IL-17 (Sino Biological Inc. Cat #12047-H07B) for incubation at 37° C. for 30 min, 100 μL for per well. The 96-well plate was washed four times with phosphate buffered saline (PBS) containing Tween-20 (PBST, 0.05% Tween-20), 200 μL for per well each time. 200 μL of 5% skim milk were added into the 96-well plate for incubation on a shaker at 25° C. for 30 min. The 96-well plate was washed four times with PBST (0.05% Tween-20), and added with 89 μL of PBST and 1 μL of a compound to be measured (100×), in which a concentration the compound to be measured (100×) was 0.003 μM-30 μM. The mixture was mixed evenly and incubated at 25° C. for 10 min. The mixture was added with 10 μL of 16 nM IL-17R, followed by incubation at 25° C. for 30 min. After washing the 96-well plate 4 times, 100 μL of anti-Fc tag horseradish peroxidase (HRP) coupled antibody were added for incubation on a shaker at 25° C. for 30 min. After washing the 96-well plate 4 times, 100 μL of 3,3′,5,5′-tetramethylbenzidine (TMB) substrate solution were added to the 96-well plate for incubation away from light at 25° C. After addition of 20% HCl, an absorbance was measure by a microplate reader at 450 nm.
The compounds prepared according to the above method were assayed for human IL-17A inhibitory activity.

hIL-17A = target: T2, hIL-17A (Homo sapiens, UniProt Q16552); assay: Inhibition of hIL-17A-induced chemokine GROα/CXCL1 production in HT-29 cell; format: cell-based
T2 construct: purchased R&D 317-ILB
T2 sequence (Q16552 20-155 limits assumed): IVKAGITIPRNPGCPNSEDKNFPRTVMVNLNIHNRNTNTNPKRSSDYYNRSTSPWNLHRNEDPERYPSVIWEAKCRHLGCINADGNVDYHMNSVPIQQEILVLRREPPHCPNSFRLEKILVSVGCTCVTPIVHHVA
Protocol: Human colorectal adenocarcinoma cell HT-29 was inoculated to a 96-well plate (5×10^4 for per well), and incubated at 37° C. on an incubator overnight. A mixture of 30 ng/mL hIL-17A protein (R&D, #317-ILB) with gradient concentrations of IL-17A small molecule inhibitors or with 0.3 μg/mL positive control IL-17A antibody (R&D, #AF-317-NA) was incubated for 1 h at 37° C., and added into the 96-well plate to incubated with HT-29 at 37° C. for 48 h. A level of GROα in a cell culture supernatant was then detected using an ELISA kit for GROα (Cisbio, #62HCXC1peg).
Inhibitory effect of the compound prepared in Examples on hIL-17A-induced chemokine GROα/CXCL1 production in HT-29 cell was tested according to the methods of Experimental Examples 1 and 2. […] “-” indicated not tested. According to the results, the compounds provided herein have good human IL-17A inhibitory activity and can be effectively used in the treatment of diseases associated with abnormal hIL-17A activity.

SMILES	IC50 (human IL-17A (hIL-17A)) [nM]	IC50 (hIL-17A) [nM]
Cc1n[nH]c(C)c1-c1ccc(NC(=O)[C@@H](NC(=O)c2nonc2C(C)C)C2c3cc(F)c(F)cc3OCC23CC3)cn1 (stereo partly shown) [Compound 44]	122	336
Cc1n[nH]c(C)c1-c1ccc(NC(=O)[C@@H](NC(=O)c2nonc2C(C)C)C2c3cc(F)c(F)cc3OCC23CC3)cc1 (stereo partly shown) [Compound 45]	125	50
Cc1n[nH]c(C)c1-c1ncc(NC(=O)[C@@H](NC(=O)c2nonc2C(C)C)C2c3cc(F)c(F)cc3OCC23CC3)cc1F (stereo partly shown) [Compound 46]	95	122
Cc1n[nH]c(C)c1-c1ccc(NC(=O)[C@@H](NC(=O)c2ccnn2C(C)C)C2c3cc(F)c(F)cc3OCC23CC3)cc1 (stereo partly shown) [Compound 48]	135	184
Cc1n[nH]c(C)c1-c1ccc(NC(=O)[C@@H](NC(=O)c2ccnn2C(C)C)C2c3ccc(F)c(F)c3OCC23CC3)cn1 (stereo partly shown) [Compound 50]	81	569
Cc1n[nH]c(C)c1-c1ncc(NC(=O)[C@@H](NC(=O)c2ccnn2C(C)C)C2c3ccc(F)c(F)c3OCC23CC3)cc1F (stereo partly shown) [Compound 51]	155	313
Cc1n[nH]c(C)c1-c1ccc(NC(=O)[C@@H](NC(=O)C2(F)CC2)C2c3cc(F)c(F)cc3OCC23CC3)cc1 (stereo partly shown) [Compound 55]	65	228
Cc1n[nH]c(C)c1-c1ccc(NC(=O)[C@@H](NC(=O)c2ccnn2C(C)C)C2c3ccc(F)c(F)c3OCC23CC3)cc1 (stereo partly shown) [Compound 56]	139	355
Cc1nonc1C(=O)N[C@H](C(=O)Nc1ccc(-c2c(C)n[nH]c2C)cc1)C1c2ccc(F)c(F)c2OCC12CC2 (stereo partly shown) [Compound 57]	112	346
Cc1n[nH]c(C)c1-c1ccc(NC(=O)[C@@H](NC(=O)c2ccnn2C(C)C)C2c3c(F)cc(F)cc3OCC23CC3)cn1 (stereo partly shown) [Compound 59]	222	1480
Cc1n[nH]c(C)c1-c1ncc(NC(=O)[C@@H](NC(=O)c2ccnn2C(C)C)C2c3c(F)cc(F)cc3OCC23CC3)cc1F (stereo partly shown) [Compound 60]	193	279
Cc1n[nH]c(C)c1-c1ccc(NC(=O)[C@@H](NC(=O)c2ccnn2C(C)C)C2c3cc(F)c(F)cc3OCC23CC3)cn1 (stereo partly shown) [Compound 62]	151	177
Cc1n[nH]c(C)c1-c1ccc(NC(=O)[C@@H](NC(=O)c2nonc2C(C)C)C2c3ccc(F)c(F)c3OCC23CC3)cn1 (stereo partly shown) [Compound 63]	156	605
Cc1n[nH]c(C)c1-c1ncc(NC(=O)[C@@H](NC(=O)c2nonc2C(C)C)C2c3ccc(F)c(F)c3OCC23CC3)cc1F (stereo partly shown) [Compound 64]	154	335
Cc1n[nH]c(C)c1-c1ccc(NC(=O)[C@@H](NC(=O)c2nonc2C(C)C)C2c3ccc(F)c(F)c3OCC23CC3)cc1 (stereo partly shown) [Compound 65]	222	212
Cc1n[nH]c(C)c1-c1ccc(NC(=O)[C@@H](NC(=O)c2nonc2C2CC2)C2c3c(F)cc(F)cc3OCC23CC3)cc1 (stereo partly shown) [Compound 67]	577	557
Cc1n[nH]c(C)c1-c1ncc(NC(=O)[C@@H](NC(=O)c2nonc2C(C)C)C2c3cc(F)cc(F)c3OCC23CC3)cc1F (stereo partly shown) [Compound 68]	503	1940
Cc1nonc1C(=O)N[C@H](C(=O)Nc1ccc(-c2c(C)n[nH]c2C)cc1)C1c2cc(F)cc(F)c2OCC12CC2 (stereo partly shown) [Compound 69]	288	941
Cc1n[nH]c(C)c1-c1ccc(NC(=O)[C@@H](NC(=O)c2ccnn2C(C)C)C2c3cc(F)cc(F)c3OCC23CC3)cc1 (stereo partly shown) [Compound 70]	201	112

SMILES	IC50 (human IL-17A (hIL-17A)) [nM]	IC50 (hIL-17A) [nM]
Cc1n[nH]c(C)c1-c1ncc(NC(=O)[C@@H](NC(=O)c2ccnn2C(C)C)C2c3cc(F)cc(F)c3OCC23CC3)cc1F (stereo partly shown) [Compound 72]	343	1810
Cc1n[nH]c(C)c1-c1ccc(NC(=O)[C@@H](NC(=O)c2nonc2C(C)C)C2c3cc(F)cc(F)c3OCC23CC3)cn1 (stereo partly shown) [Compound 73]	294	795
Cc1n[nH]c(C)c1-c1ccc(NC(=O)[C@@H](NC(=O)c2nonc2C(C)C)C2c3cc(F)cc(F)c3OCC23CC3)cc1 (stereo partly shown) [Compound 74]	413	609
Cc1n[nH]c(C)c1-c1ccc(NC(=O)[C@@H](NC(=O)c2ccnn2C(C)C)C2c3c(F)ccc(F)c3OCC23CC3)cc1 (stereo partly shown) [Compound 76]	270	1050
CCc1nonc1C(=O)N[C@H](C(=O)Nc1ccc(-c2c(C)n[nH]c2C)cc1)C1c2cc(F)cc(F)c2OCC12CC2 (stereo partly shown) [Compound 77]	320	1010
Cc1n[nH]c(C)c1-c1ccc(NC(=O)[C@@H](NC(=O)c2nonc2C2CC2)C2c3cc(F)cc(F)c3OCC23CC3)cc1 (stereo partly shown) [Compound 80]	406	762
COCc1[nH]nc(C)c1-c1ccc(NC(=O)[C@@H](NC(=O)c2nonc2C)C2c3ccc(F)c(F)c3OCC23CC3)cc1 (stereo partly shown) [Compound 85]	133	1220
Cc1n[nH]c(C)c1-c1ncc(NC(=O)[C@@H](NC(=O)c2nonc2C2CC2)C2c3ccc(F)c(F)c3OCC23CC3)cc1F (stereo partly shown) [Compound 86]	179	718
Cc1n[nH]c(C)c1-c1ccc(NC(=O)[C@@H](NC(=O)c2nonc2C2CC2)C2c3ccc(F)c(F)c3OCC23CC3)cc1 (stereo partly shown) [Compound 87]	165	332
Cc1n[nH]c(C)c1-c1ncc(NC(=O)[C@@H](NC(=O)c2ccnn2C(C)C)C2c3ccc(F)cc3OCC23CC3)cc1F (stereo partly shown) [Compound 90]	144	188
Cc1n[nH]c(C)c1-c1ncc(NC(=O)[C@@H](NC(=O)c2nonc2C2CC2)C2c3ccc(F)cc3OCC23CC3)cc1F (stereo partly shown) [Compound 91]	67	1080
Cc1n[nH]c(C)c1-c1ncc(NC(=O)[C@@H](NC(=O)c2nonc2C2CC2)C2c3cc(F)c(F)cc3OCC23CC3)cc1F (stereo partly shown) [Compound 92]	187	9650
Cc1n[nH]c(C)c1-c1ccc(NC(=O)[C@@H](NC(=O)c2nonc2C2CC2)C2c3ccc(F)cc3OCC23CC3)cc1 (stereo partly shown) [Compound 94]	572	695
Cc1n[nH]c(C)c1-c1ccc(NC(=O)[C@@H](NC(=O)c2nonc2C2CC2)C2c3ccc(F)cc3OCC23CC3)cn1 (stereo partly shown) [Compound 95]	94	457
Cc1n[nH]c(C)c1-c1ncc(NC(=O)[C@@H](NC(=O)c2conc2C2CC2)C2c3cc(F)c(F)cc3OCC23CC3)cc1F (stereo partly shown) [Compound 96]	125	134
Cc1n[nH]c(C)c1-c1ccc(NC(=O)[C@@H](NC(=O)c2conc2C2CC2)C2c3cc(F)c(F)cc3OCC23CC3)cn1 (stereo partly shown) [Compound 97]	165	221
Cc1n[nH]c(C)c1-c1ccc(NC(=O)[C@@H](NC(=O)c2conc2C2CC2)C2c3ccc(F)cc3OCC23CC3)cn1 (stereo partly shown) [Compound 99]	96	213
Cc1n[nH]c(C)c1-c1ncc(NC(=O)[C@@H](NC(=O)c2conc2C2CC2)C2c3ccc(F)cc3OCC23CC3)cc1F (stereo partly shown) [Compound 100]	189	563
Cc1n[nH]c(C)c1-c1ccc(NC(=O)[C@@H](NC(=O)OC2CC2)C2c3cc(F)c(F)cc3OCC23CC3)cn1 (stereo partly shown) [Compound 105]	81	943

— US20230227437A1, “IMMUNOMODULATOR” (priority 2020, published 2023)
